Measured values published in publication PMC5701182, “The Aβ oligomer eliminating D-enantiomeric peptide RD2 improves cognition without changing plaque pathology” (Scientific Reports, 2017).
Non-standard residues stand in square brackets, D forms with d. Residues, ends and D or L forms follow the SMILES beside them.

Columns and labels:
Aβ(1-42) oligomers = molecular target: T1, Aβ(1-42) oligomers (Homo sapiens, UniProt P05067); assay: QIAD assay (quantitative determination of interference with Aβ aggregate size distribution); assay type: biochemical
T1 construct: Synthetic and recombinant Aβ(1-42) with >95% purity was purchased as lyophilized powder; purchased Bachem (Germany) (synthetic) / Isoloid (Germany) (recombinant)
T1 sequence (P05067 672-713 limits assumed): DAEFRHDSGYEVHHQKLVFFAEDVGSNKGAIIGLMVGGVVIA
Protocol: For the evaluation of Aβ oligomer elimination of RD2, a QIAD assay (quantitative determination of interference with Aβ aggregate size distribution) was performed according to Brener et al.[23]. Briefly, 80 µM Aβ(1-42) was pre-incubated for 4.5 h to enrich Aβ oligomers. Then either RD2 or D3 were added to the pre-incubated solution with the resulting concentration of 20 µM RD2 or D3 and co-incubated for further 40 min. The samples were loaded on top of a density gradient containing 5 to 50% (w/v) iodixanol (OptiPrep, Axis-Shield, Norway) and centrifuged for 3 h at 4 °C and 259.000 × g (Optima TL-100, Beckman Coulter, USA). After centrifugation, 14 fractions à 140 μl were harvested by upward displacement. Fraction 1 from the top of the gradient was the least dense fraction while fraction 14 from just above the bottom was the densest fraction. The pellet of each tube was mixed with 60 µl of a 6 M guanidine hydrochloride solution and boiled for 10 min. The resulting solution represents fraction 15. All fractions were analysed with respect to their Aβ(1-42) content by analytical RP-HPLC (reversed phase-high performance liquid chromatography) and UV absorbance detection at 214 nm. The data for the D3 values and the Aβ(1-42) controls without compounds were already previously used in Brener et al.[23]. Analyses were done at least in quadruplicates (D3 and RD2 n = 4, Aβ(1-42) n = 11). […]

[1] = molecular target: T2, Aβ(1-42) fibril formation (Homo sapiens, UniProt P05067); assay: Thioflavin T (ThT) fibril formation assay; assay type: biochemical; conditions: 20 µM Aβ(1-42), 5 µM ThT, RD2 80-1.25 µM, 21 h, 37 °C; logistic fit; three replicates; read-out: IC50 of inhibition of Aβ(1-42) fibril formation
T2 construct: Synthetic and recombinant Aβ(1-42) with >95% purity was purchased as lyophilized powder; purchased Bachem (Germany) (synthetic) / Isoloid (Germany) (recombinant)
T2 sequence (P05067 672-713 limits assumed): as above
Protocol: The Thioflavin T (ThT) assay is a commonly used assay to visualize and quantify the fibrilisation of Aβ, since this dye binds to amyloidogenic cross-β-sheet structures. While Aβ aggregates into fibrils, the ThT fluorescence intensities increase until a saturation level is accomplished. Within this test, we analysed the inhibitory function of RD2 on the Aβ(1-42) fibril formation. 20 µM Aβ(1-42) was incubated with 5 µM ThT and different concentrations of RD2 (serial dilution from 80 µM till 1.25 µM) for IC50 calculation. ThT fluorescence was monitored over 21 h every 5 min at λex = 440 nm and λem = 490 nm in a fluorescence plate reader (Polarstar Optima, Germany) at 37 °C. Correction was done using all supplements without Aβ. For data evaluation, the fibril masses were determined by subtracting the baseline fluorescence intensities from the top and normalised to the Aβ control to calculate the inhibition in percent. The IC50 resulted from the compound concentration at the inflection point obtained by a logistic fit of the data (OriginPro 8.5 G, OriginLab, USA).

PC-12 cells = assay: MTT cell viability assay, PC-12 cells; assay type: cell-based, rat; conditions: 5 µM RD2 without Aβ, one-way ANOVA n.s., p = 0.4
Protocol: (§1) MTT (3-(4,5-Dimethylthiazol-2-yl)-2,5-diphenyl-tetrazolium bromide) based cell viability assays were accomplished to examine the cytotoxicity of Aβ(1-42) in the presence of RD2 on two different cell lines, PC-12 (rat pheochromocytoma cell line), and SH-SY5Y (human neuroblastoma cell line) cells.
(§2) PC-12 cells (DSMZ, Germany) were cultured in DMEM medium supplemented with 10% fetal calf serum, 1% antibiotics (Penicillin/Streptomycin) (all Sigma-Aldrich, USA), and 5% horse serum (PAA Laboratories GmbH, Germany) on collagen A-coated (Biochrom GmbH, Germany) tissue culture flasks (SPL Life Sciences Co., Korea). SH-SY5Y cells (DSMZ, Germany) were cultured in DMEM medium supplemented with 20% fetal calf serum and 1% antibiotics (Penicillin/Streptomycin) (all Sigma-Aldrich, USA) on tissue culture flasks (SPL Life Sciences Co., Korea). Cells were allowed to grow in a humidified incubator with 5% CO2 at 37 °C and a maximum of 12 (PC-12 cells) or 21 (SH-SY5Y cells) passages. Medium was changed every two days and cells were passaged every three to five days, according to their confluence.
(§3) MTT test was performed according to the manufacturer’s protocol (CellProliferation Kit I; Roche, Switzerland). […] The arithmetic mean of all measurements per approach was calculated. Results are represented as the percentage of MTT reduction, assuming that the absorbance of control cells was 100%.

SH-SY5Y cells = assay: MTT cell viability assay, SH-SY5Y cells; assay type: cell-based, human; conditions: 5 µM RD2 without Aβ, one-way ANOVA n.s., p = 0.4
Protocol: as §1, §2, §3

APP/PS1 mice [2] = assay: Body weight and general health during intraperitoneal minipump treatment; assay type: in vivo, mouse; conditions: female APP/PS1 mice, 5.3 mg/kg/day RD2 i.p. by Alzet minipump
Protocol: For this study, 21 APP/PS1 double transgenic mice (APPSwedish/PS1ΔE9)[36] were used. The very well characterized APP/PS1 mouse model develops cognition deficits and abundant Aβ deposits already at early age. The original mice were purchased from JAX (The Jackson Laboratory, USA) and maintained in our own colony at the University of Alabama in Birmingham. Before treatment, the mice were housed in a controlled environment (humidity 50–60%, temperature 22 °C, light from 06:00 a.m. to 6:00 p.m.) with 4 animals per cage in our facility with food and water available ad libitum. After the implantation of the Alzet minipumps the mice were housed individually.
In this study, we treated seven months old female APP/PS1 mice intraperitoneally by use of Alzet osmotic minipumps (Alzet osmotic mini pumps, model #1004, Alzet, USA). Mice were either treated with 5.3 mg/kg/day RD2 (n = 11) or placebo (0.9% sodium chloride solution) (n = 10) as control group. The Alzet minipumps were soaked in sterile 0.9% sodium chloride solution for 24 h before implantation. The next day, the pumps were filled with the appropriate solution and implanted intraperitoneally. In short, mice were anesthetised with isoflurane, the skin and the muscle layer below were cut in the midline and the pump was inserted in the abdominal cavity. Following placement of the pump, the wound was sutured. […]

APP/PS1 mice [3] = assay: Open field test; assay type: in vivo, mouse; conditions: APP/PS1 mice after three weeks of 5.3 mg/kg/day RD2 i.p.
Protocol: (§4) In this study, we treated seven months old female APP/PS1 mice intraperitoneally by use of Alzet osmotic minipumps (Alzet osmotic mini pumps, model #1004, Alzet, USA). Mice were either treated with 5.3 mg/kg/day RD2 (n = 11) or placebo (0.9% sodium chloride solution) (n = 10) as control group. The Alzet minipumps were soaked in sterile 0.9% sodium chloride solution for 24 h before implantation. The next day, the pumps were filled with the appropriate solution and implanted intraperitoneally. In short, mice were anesthetised with isoflurane, the skin and the muscle layer below were cut in the midline and the pump was inserted in the abdominal cavity. Following placement of the pump, the wound was sutured. Three weeks after the implantations, the mice were tested in different behavioural set ups. 28 days after the implantations, the mice were sacrificed for histopathological analysis. All mice of both groups were included in the experiments described below.
The open field test was performed to evaluate the activity and anxiety behaviour of the mice. The arena (42 cm × 42 cm surrounded with clear Plexiglass sides (20 cm high)) was subdivided into two areas: border and centre. […] Time spent in both areas was analysed. After each testing day and in between the mice, the apparatus was wiped out with chlorhexidine and 70% ethanol and allowed to air-dry.

APP/PS1 mice [4] = assay: Zero maze; assay type: in vivo, mouse; conditions: APP/PS1 mice after three weeks of 5.3 mg/kg/day RD2 i.p., mean ± SEM, placebo 5.0 ± 0.6
Protocol: as §4
Similar to the open field test, the zero maze was used to assess the anxiety behaviour of the mice. The maze consisted of a circular arena (65 cm diameter) that is raised 40 cm above the table. The maze was separated into four equal parts, with two parts with 15 cm high walls of opaque material and two only 0.5 cm high walls. […] Analysed was the time mice spent in the open and closed arms. […]

APP/PS1 mice [5] = assay: Morris water maze; assay type: in vivo, mouse; conditions: 5.3 mg/kg/day RD2 i.p., placebo 19.0 ± 1 cm/s
Protocol: as §4
The mice were tested daily for one week in a water maze. Our version of the Morris water maze consists of a blue circular tank (120 cm diameter) filled with clear water (22 °C ± 1 °C). […] Mice were recorded with a camera driven tracker system (Ethovision XT10, Noldus, The Netherlands). It was analysed the time the mice needed to escape to the hidden platform (escape latency) and the time they spent in the target quadrant (probe trial).

[6] = previous pharmacokinetic studies of D3 and RD2; cited from earlier work
Source text: Nowadays, the inhibition of the formation of Aβ oligomers and the elimination of already present Aβ oligomers is thought to be one of the most promising strategies to modify disease progression according to the modified amyloid cascade hypothesis. Currently registered drugs can only ameliorate symptoms and cannot slow down disease progression. Previously, we have reported about a D-enantiomeric peptide, named “D3”, which was identified by mirror image phage display and solely consists of D-enantiomeric amino acid residues[21],[22]. D3 inhibits the formation of regular Aβ fibrils, eliminates di ...

CC(C)C[C@@H](NC(=O)[C@H](NC(=O)[C@H]1CCCN1)[C@H](C)O)C(=O)N[C@H](Cc1c[nH]cn1)C(=O)N[C@@H](C(=O)N[C@H](Cc1c[nH]cn1)C(=O)N[C@H](CC(N)=O)C(=O)N[C@H](CCCNC(=N)N)C(=O)N[C@H](CCCNC(=N)N)C(=O)N[C@H](CCCNC(=N)N)C(=O)N[C@H](CCCNC(=N)N)C(=O)N[C@H](CCCNC(=N)N)C(N)=O)[C@H](C)O [RD2] (H-[dP][dT][dL][dH][dT][dH][dN][dR][dR][dR][dR][dR]-NH2)
reduction of the amount of Aβ oligomers in fractions 4 to 6 (Aβ(1-42) oligomers; 20 µM RD2 added to 80 µM Aβ(1-42) pre-incubated 4.5 h, co-incubated 40 min, density gradient centrifugation, RP-HPLC UV 214 nm, n = 4): 71% | IC50 (Aβ(1-42) oligomers; QIAD with pooled fractions 4 to 6, 1-40 µM RD2 on 80 µM Aβ(1-42), logistic fit, n = 3, read-out: IC50 of Aβ(1-42) oligomer elimination): 8.4 µM | IC50 [1]: 7.7 µM | cell viability with RD2 alone compared to buffer control (PC-12 cells): did not result in any change of cell viability | cell viability with RD2 alone compared to buffer control (SH-SY5Y cells): did not result in any change of cell viability | physiological parameters, general health and discomfort (APP/PS1 mice [2]; 28 days): neither changed any obvious physiological parameters | body weight (APP/PS1 mice [2]; n = 11, placebo 25.7 ± 0.9 g, mean ± SEM, SEM): 26.8 ± 0.8 g | speed in the open field (APP/PS1 mice [3]; mean ± SEM, placebo 8.9 ± 0.9 cm/s, SEM): 8.8 ± 0.7 cm/s | activity or anxiety levels versus placebo (APP/PS1 mice [3]; open field and zero maze tests): no significant differences in activity or anxiety levels | average speed of movement in the zero maze (APP/PS1 mice [4]): 4.8 ± 0.4 cm/s | swimming speed in the Morris water maze (APP/PS1 mice [5]): 18.8 ± 1 cm/s | bioavailability of RD2 compared to D3 [6]: higher bioavailability
